Data reported in publication PMC8909834, “An Orally Bioavailable and Highly Efficacious Inhibitor of CDK9/FLT3 for the Treatment of Acute Myeloid Leukemia” (Cancers, 2022).

Assays:
Test in all cases: Kinase Hotspot radiolabel assay
Type in all cases: biochemical
Details in all cases: read-out: % Residual Activity
ARAF = biological target: T1, ARAF (Homo sapiens, UniProt P10398)
T1 construct: purchased Reaction Biology Corporation (Kinase HotSpot)
Method in brief: (§1)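 Inhibition measured by a radiolabel Hotspot kinase assay as part of a 369-kinase specificity panel, with the compound at 1 µM. Kinases inhibited by more than 90% went on to Ki determination.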

ARK5/NUAK1 = biological target: T2, ARK5/NUAK1 (Homo sapiens, UniProt O60285)
T2 construct: purchased Reaction Biology Corporation (Kinase HotSpot)
Method in brief: as §1

Aurora B = biological target: T3, Aurora B (Homo sapiens, UniProt Q96GD4)
T3 construct: purchased Reaction Biology Corporation (Kinase HotSpot)
Method in brief: as §1

CDK5/p35 = biological target: T4, CDK5/p35 (Homo sapiens, UniProt Q00535)
T4 construct: purchased Reaction Biology Corporation (Kinase HotSpot)
Method in brief: as §1

CLK4 = biological target: T5, CLK4 (Homo sapiens, UniProt Q9HAZ1)
T5 construct: purchased Reaction Biology Corporation (Kinase HotSpot)
Method in brief: as §1

DCAMKL2 = biological target: T6, DCAMKL2 (Homo sapiens, UniProt Q8N568)
T6 construct: purchased Reaction Biology Corporation (Kinase HotSpot)
Method in brief: as §1

DDR1 = biological target: T7, DDR1 (Homo sapiens, UniProt Q08345)
T7 construct: purchased Reaction Biology Corporation (Kinase HotSpot)
Method in brief: as §1

EPHA2 = biological target: T8, EPHA2 (Homo sapiens, UniProt P29317)
T8 construct: purchased Reaction Biology Corporation (Kinase HotSpot)
Method in brief: as §1

EPHA5 = biological target: T9, EPHA5 (Homo sapiens, UniProt P54756)
T9 construct: purchased Reaction Biology Corporation (Kinase HotSpot)
Method in brief: as §1

EPHB2 = biological target: T10, EPHB2 (Homo sapiens, UniProt P29323)
T10 construct: purchased Reaction Biology Corporation (Kinase HotSpot)
Method in brief: as §1

ERK7/MAPK15 = biological target: T11, ERK7/MAPK15 (Homo sapiens, UniProt Q8TD08)
T11 construct: purchased Reaction Biology Corporation (Kinase HotSpot)
Method in brief: as §1

FES/FPS = biological target: T12, FES/FPS (Homo sapiens, UniProt P07332)
T12 construct: purchased Reaction Biology Corporation (Kinase HotSpot)
Method in brief: as §1

FLT3 = biological target: T13, FLT3 (Homo sapiens, UniProt P36888)
T13 construct: purchased Reaction Biology Corporation (Kinase HotSpot)
Method in brief: as §1

GCK/MAP4K2 = biological target: T14, GCK/MAP4K2 (Homo sapiens, UniProt Q12851)
T14 construct: purchased Reaction Biology Corporation (Kinase HotSpot)
Method in brief: as §1

GRK2 = biological target: T15, GRK2 (Homo sapiens, UniProt P25098)
T15 construct: purchased Reaction Biology Corporation (Kinase HotSpot)
Method in brief: as §1

GRK4 = biological target: T16, GRK4 (Homo sapiens, UniProt P32298)
T16 construct: purchased Reaction Biology Corporation (Kinase HotSpot)
Method in brief: as §1

JAK3 = biological target: T17, JAK3 (Homo sapiens, UniProt P52333)
T17 construct: purchased Reaction Biology Corporation (Kinase HotSpot)
Method in brief: as §1

JNK2 = biological target: T18, JNK2 (Homo sapiens, UniProt P45984)
T18 construct: purchased Reaction Biology Corporation (Kinase HotSpot)
Method in brief: as §1

MARK4 = biological target: T19, MARK4 (Homo sapiens, UniProt Q96L34)
T19 construct: purchased Reaction Biology Corporation (Kinase HotSpot)
Method in brief: as §1

MEK3 = biological target: T20, MEK3 (Homo sapiens, UniProt P46734)
T20 construct: purchased Reaction Biology Corporation (Kinase HotSpot)
Method in brief: as §1

MST4 = biological target: T21, MST4 (Homo sapiens, UniProt Q9P289)
T21 construct: purchased Reaction Biology Corporation (Kinase HotSpot)
Method in brief: as §1

NEK7 = biological target: T22, NEK7 (Homo sapiens, UniProt Q8TDX7)
T22 construct: purchased Reaction Biology Corporation (Kinase HotSpot)
Method in brief: as §1

NEK8 = biological target: T23, NEK8 (Homo sapiens, UniProt Q86SG6)
T23 construct: purchased Reaction Biology Corporation (Kinase HotSpot)
Method in brief: as §1

SIK2 = biological target: T24, SIK2 (Homo sapiens, UniProt Q9H0K1)
T24 construct: purchased Reaction Biology Corporation (Kinase HotSpot)
Method in brief: as §1

SRPK2 = biological target: T25, SRPK2 (Homo sapiens, UniProt P78362)
T25 construct: purchased Reaction Biology Corporation (Kinase HotSpot)
Method in brief: as §1

TAOK2/TAO1 = biological target: T26, TAOK2/TAO1 (Homo sapiens, UniProt Q9UL54)
T26 construct: purchased Reaction Biology Corporation (Kinase HotSpot)
Method in brief: as §1

TTBK1 = biological target: T27, TTBK1 (Homo sapiens, UniProt Q5TCY1)
T27 construct: purchased Reaction Biology Corporation (Kinase HotSpot)
Method in brief: as §1

TXK = biological target: T28, TXK (Homo sapiens, UniProt P42681)
T28 construct: purchased Reaction Biology Corporation (Kinase HotSpot)
Method in brief: as §1

YES/YES1 = biological target: T29, YES/YES1 (Homo sapiens, UniProt P07947)
T29 construct: purchased Reaction Biology Corporation (Kinase HotSpot)
Method in brief: as §1

c-Src = biological target: T30, c-Src (Homo sapiens, UniProt P12931)
T30 construct: purchased Reaction Biology Corporation (Kinase HotSpot)
Method in brief: as §1

T17 sequence (P52333 whole entry): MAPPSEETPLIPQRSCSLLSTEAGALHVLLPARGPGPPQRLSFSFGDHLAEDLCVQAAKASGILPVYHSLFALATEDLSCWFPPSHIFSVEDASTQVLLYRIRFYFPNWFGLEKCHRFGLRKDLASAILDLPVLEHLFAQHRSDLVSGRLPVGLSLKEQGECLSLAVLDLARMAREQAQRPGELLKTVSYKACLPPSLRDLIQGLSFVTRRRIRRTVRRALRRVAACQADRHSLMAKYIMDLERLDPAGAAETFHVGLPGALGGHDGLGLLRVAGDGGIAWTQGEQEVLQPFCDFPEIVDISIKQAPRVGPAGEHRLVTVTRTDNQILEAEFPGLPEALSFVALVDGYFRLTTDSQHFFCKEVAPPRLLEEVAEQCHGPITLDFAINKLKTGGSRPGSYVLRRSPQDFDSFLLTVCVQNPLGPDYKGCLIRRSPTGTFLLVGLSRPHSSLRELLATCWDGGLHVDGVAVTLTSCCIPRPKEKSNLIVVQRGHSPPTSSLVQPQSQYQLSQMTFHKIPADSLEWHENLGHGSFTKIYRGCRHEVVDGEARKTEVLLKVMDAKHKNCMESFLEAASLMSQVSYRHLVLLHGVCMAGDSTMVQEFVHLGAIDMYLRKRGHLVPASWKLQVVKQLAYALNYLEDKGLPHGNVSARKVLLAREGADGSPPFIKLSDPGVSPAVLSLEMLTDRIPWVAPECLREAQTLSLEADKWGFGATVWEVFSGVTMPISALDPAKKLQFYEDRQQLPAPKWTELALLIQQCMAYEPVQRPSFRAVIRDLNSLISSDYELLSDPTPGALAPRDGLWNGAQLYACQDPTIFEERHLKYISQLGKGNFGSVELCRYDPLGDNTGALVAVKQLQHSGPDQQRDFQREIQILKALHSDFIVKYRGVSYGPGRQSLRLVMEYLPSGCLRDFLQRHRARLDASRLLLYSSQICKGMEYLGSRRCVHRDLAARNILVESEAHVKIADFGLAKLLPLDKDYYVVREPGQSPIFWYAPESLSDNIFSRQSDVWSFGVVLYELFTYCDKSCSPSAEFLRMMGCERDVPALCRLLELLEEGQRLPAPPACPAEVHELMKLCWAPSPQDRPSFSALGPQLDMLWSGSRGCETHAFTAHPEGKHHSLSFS
T27 sequence (Q5TCY1 whole entry): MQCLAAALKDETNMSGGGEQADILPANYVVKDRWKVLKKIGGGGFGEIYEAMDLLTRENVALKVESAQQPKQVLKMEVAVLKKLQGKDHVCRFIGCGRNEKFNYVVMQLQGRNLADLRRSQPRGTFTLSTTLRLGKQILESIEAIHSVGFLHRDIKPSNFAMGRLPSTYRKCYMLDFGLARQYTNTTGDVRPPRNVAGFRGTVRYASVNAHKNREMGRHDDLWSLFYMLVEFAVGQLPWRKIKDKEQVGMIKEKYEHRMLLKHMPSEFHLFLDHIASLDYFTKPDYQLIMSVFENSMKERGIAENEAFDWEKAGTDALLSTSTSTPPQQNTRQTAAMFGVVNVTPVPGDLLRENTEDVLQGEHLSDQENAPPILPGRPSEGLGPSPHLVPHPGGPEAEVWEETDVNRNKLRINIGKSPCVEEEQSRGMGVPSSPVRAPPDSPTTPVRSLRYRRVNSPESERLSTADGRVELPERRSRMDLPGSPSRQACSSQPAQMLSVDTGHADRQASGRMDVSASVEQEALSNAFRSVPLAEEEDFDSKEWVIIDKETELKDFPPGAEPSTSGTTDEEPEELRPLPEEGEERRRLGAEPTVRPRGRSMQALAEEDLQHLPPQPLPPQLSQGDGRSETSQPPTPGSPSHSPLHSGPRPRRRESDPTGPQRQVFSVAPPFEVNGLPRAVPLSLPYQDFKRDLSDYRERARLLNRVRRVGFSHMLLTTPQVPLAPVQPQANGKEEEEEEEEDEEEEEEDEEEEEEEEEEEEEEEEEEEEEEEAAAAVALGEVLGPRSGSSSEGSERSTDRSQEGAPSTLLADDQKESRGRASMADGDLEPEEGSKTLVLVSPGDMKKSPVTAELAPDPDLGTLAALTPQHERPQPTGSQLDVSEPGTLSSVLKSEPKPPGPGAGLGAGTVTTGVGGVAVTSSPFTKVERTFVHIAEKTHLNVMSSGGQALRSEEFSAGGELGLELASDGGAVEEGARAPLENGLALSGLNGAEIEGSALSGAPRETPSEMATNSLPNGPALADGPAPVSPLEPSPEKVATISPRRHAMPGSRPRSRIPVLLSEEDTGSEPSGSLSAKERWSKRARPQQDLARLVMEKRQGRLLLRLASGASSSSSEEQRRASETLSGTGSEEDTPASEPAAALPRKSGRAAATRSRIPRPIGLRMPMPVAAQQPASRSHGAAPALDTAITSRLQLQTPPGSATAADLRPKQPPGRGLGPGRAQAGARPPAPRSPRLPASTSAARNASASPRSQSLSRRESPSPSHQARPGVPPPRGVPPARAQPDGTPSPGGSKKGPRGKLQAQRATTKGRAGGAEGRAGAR
T1 sequence (P10398 whole entry): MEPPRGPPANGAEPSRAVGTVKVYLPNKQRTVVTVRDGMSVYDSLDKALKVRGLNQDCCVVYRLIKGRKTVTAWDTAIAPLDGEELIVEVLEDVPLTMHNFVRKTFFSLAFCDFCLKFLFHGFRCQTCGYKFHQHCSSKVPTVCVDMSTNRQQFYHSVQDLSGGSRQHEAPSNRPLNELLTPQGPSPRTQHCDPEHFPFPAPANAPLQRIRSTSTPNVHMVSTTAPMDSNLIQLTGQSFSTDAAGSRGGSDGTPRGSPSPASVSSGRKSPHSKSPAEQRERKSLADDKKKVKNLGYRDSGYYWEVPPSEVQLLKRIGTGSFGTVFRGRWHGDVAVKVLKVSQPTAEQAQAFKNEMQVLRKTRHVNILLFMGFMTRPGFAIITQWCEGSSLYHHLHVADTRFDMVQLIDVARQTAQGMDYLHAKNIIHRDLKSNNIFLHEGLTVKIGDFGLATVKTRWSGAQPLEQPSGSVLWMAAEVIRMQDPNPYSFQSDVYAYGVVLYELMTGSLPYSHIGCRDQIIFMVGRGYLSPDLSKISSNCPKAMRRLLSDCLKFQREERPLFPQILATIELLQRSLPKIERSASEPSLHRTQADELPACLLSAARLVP
T5 sequence (Q9HAZ1 whole entry): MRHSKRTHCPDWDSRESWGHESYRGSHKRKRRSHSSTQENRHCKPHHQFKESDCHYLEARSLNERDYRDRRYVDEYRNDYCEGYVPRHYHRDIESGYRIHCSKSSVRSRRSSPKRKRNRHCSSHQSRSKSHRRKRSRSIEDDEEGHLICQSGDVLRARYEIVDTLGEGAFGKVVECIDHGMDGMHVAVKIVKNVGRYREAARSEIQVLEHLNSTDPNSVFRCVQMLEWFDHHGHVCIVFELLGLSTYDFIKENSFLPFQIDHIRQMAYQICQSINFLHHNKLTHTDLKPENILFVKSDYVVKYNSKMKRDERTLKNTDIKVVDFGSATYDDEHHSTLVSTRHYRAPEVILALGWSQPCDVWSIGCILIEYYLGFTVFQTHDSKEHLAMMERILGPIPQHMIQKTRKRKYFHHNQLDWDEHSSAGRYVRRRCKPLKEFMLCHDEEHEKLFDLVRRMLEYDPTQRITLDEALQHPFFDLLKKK
T8 sequence (P29317 24-976): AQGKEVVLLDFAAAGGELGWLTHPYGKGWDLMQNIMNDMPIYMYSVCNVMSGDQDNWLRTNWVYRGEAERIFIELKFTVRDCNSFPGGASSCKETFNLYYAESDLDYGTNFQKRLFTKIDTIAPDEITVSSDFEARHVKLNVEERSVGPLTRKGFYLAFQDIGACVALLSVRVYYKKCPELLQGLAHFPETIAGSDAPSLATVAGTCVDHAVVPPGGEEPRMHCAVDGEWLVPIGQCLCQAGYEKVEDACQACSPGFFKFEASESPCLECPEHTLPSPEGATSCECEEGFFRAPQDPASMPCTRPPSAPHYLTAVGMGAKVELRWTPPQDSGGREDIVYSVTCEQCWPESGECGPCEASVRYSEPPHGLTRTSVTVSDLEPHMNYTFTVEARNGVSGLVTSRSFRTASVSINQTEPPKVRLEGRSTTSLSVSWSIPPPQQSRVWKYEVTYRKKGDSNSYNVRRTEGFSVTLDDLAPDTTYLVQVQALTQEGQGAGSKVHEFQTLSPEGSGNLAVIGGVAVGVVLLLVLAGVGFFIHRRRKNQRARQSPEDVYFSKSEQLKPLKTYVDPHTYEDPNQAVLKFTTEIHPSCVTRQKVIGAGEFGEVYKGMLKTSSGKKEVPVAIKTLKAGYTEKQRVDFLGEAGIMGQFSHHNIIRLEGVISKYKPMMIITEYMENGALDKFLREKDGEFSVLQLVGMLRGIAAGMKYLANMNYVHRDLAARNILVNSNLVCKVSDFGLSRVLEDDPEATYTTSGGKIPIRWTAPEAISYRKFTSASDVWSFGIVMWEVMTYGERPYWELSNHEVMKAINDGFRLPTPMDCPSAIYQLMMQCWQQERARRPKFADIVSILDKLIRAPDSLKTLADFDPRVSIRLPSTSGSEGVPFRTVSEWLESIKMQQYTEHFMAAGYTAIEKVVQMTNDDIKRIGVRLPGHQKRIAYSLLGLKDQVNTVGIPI
T3 sequence (Q96GD4 whole entry): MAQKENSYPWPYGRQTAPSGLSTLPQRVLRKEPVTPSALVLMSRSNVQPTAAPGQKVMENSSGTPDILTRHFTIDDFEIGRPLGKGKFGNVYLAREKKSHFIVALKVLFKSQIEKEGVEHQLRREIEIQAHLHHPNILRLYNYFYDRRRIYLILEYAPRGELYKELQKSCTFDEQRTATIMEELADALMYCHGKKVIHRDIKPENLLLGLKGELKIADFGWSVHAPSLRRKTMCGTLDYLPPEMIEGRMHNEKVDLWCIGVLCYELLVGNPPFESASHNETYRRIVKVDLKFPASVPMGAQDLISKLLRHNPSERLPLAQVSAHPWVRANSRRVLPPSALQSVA

## Cc1cnc(N[C@H]2CC[C@H](N)CC2)nc1-c1cnc2ccc(-c3ccccc3)cn12 [CDDD11-8]
ARAF
  remaining activity at 1 µM: 91.5%
ARK5/NUAK1
  remaining activity at 1 µM: 7.93%
Aurora B
  remaining activity at 1 µM: 89.6%
CDK5/p35
  remaining activity at 1 µM: 84.5%
CLK4
  remaining activity at 1 µM: 26.1%
DCAMKL2
  remaining activity at 1 µM: 108%
DDR1
  remaining activity at 1 µM: 63.1%
EPHA2
  remaining activity at 1 µM: 86.4%
EPHA5
  remaining activity at 1 µM: 83.8%
EPHB2
  remaining activity at 1 µM: 80.2%
ERK7/MAPK15
  remaining activity at 1 µM: 66.4%
FES/FPS
  remaining activity at 1 µM: 86.2%
FLT3
  remaining activity at 1 µM: 2.43%
GCK/MAP4K2
  remaining activity at 1 µM: 24.8%
GRK2
  remaining activity at 1 µM: 95.9%
GRK4
  remaining activity at 1 µM: 98.2%
JAK3
  remaining activity at 1 µM: 48.5%
JNK2
  remaining activity at 1 µM: 103%
MARK4
  remaining activity at 1 µM: 22.4%
MEK3
  remaining activity at 1 µM: 71.5%
MST4
  remaining activity at 1 µM: 92.9%
NEK7
  remaining activity at 1 µM: 102%
NEK8
  remaining activity at 1 µM: 72.8%
SIK2
  remaining activity at 1 µM: 35.8%
SRPK2
  remaining activity at 1 µM: 95.3%
TAOK2/TAO1
  remaining activity at 1 µM: 45%
TTBK1
  remaining activity at 1 µM: 89.5%
TXK
  remaining activity at 1 µM: 60.4%
YES/YES1
  remaining activity at 1 µM: 70%
c-Src
  remaining activity at 1 µM: 49.5%
